Experiment: Test of solubility: mixture of tetrahydrocurcuminoids in oils, microscopic examination
Assay type: physicochemical
Details: 1 g Tetrahydrocurcuminoids CG adjusted to 10 g with the oil, 15 minutes at 80° C., cooled 24 hours at room temperature
Description: Two amide oils in accordance with the invention are compared to 13 conventional oils used in cosmetics. Their solubilizing power is studied on a mixture of tetrahydrocurcuminoids of formula (I): i.e., the commercial product Tetrahydrocurcuminoids CG from Sabinsa as defined above.
1 g of a mixture of tetrahydrocurcuminoids is weighed and adjusted to 10 g with the oil studied. The mixture is heated for 15 minutes on a waterbath at 80° C. It is allowed to cool for 24 hours at room temperature and a microscopic examination is performed.

CCCCN(CCC(=O)OCC)C(C)=O [N-acetyl-N-butylaminopropionate]
SOLUBILITY AFTER 24 HOURS AT ROOM TEMPERATURE: completely dissolve the mixture of tetrahydrocurcuminoids

From patent publication US6872401B2, “Cosmetic/dermatological compositions comprising a tetrahydrocurcuminoid and an amide oil” (L'Oreal, priority 2002, dated 2005)
